Source: US20240361338A1, “DIAGNOSIS AND TREATMENT OF ECTOPIC ENDOMETRIOSIS” (FERRING B.V., priority 2021, published 2024)

Key:
VEGF = VEGF levels in the E-MSC-HUVEC coculture model; assay type: cell-based, human; settings: quinagolide treated coculture
Experimental: An indirect co-culture assembly was obtained plaiting HUVECs and E-MSCs at a ratio of 1:1 (1.5×10^4/cell line) in E-MSC medium in T25 and maintaining the co-culture for 48 h in 37° C. and 5% CO2 atmosphere incubator. HUVECs and E-MSCs cultured alone were used as control for each experiment.

dopamine D2 = dopamine D2 (Homo sapiens, UniProt P14416); settings: Igbokwe et al, 2009; read-out: EC50 as D2 agonist; cited from earlier work
ectopic EMSCs = test: Annexin V apoptosis assay on E-MSCs; assay type: cell-based, human; settings: different concentrations, after 24, 48 and 72 hours
Experimental: (§1) FIG. 3: Quinagolide effect on EMSCs apoptosis and proliferation. A: Quinagolide concentration-response curve on ectopic EMSCs in both apoptosis (N=1) and proliferation (N=2) assays. B: Effect of two selected quinagolide doses (10^−5 and 10^−7M) on HUVECs (N=1) and ectopic E-MSCs (N=3) apoptosis and proliferation assays (N=2). Data are represented as mean±SD of the indicated number of experiments and normalized to untreated cells (Control). Annexin V assays were performed using the Muse™ Annexin V & Dead Cell Kit (Millipore), according to the manufacturer's recommendations. Briefly, 20×10^3 cells were plated and after 24 h treated with different concentrations of quinagolide. After 24, 48 and 72 hours, cells were detached and resuspended in Muse™ Annexin V & Dead Cell Kit and the percentage of apoptotic cells (Annexin V+) was measured. Data are expressed as the mean±standard deviation (SD) of the media of absorbance of at least three different experiments and normalized to control.

AKT = test: Western blot of P-AKT in E-MSC-HUVEC cocultures; assay type: cell-based, human; settings: 100 nM quinagolide 24 h
Experimental: FIG. 6: Quinagolide effect on AKT activation. A: Representative western blot analysis and quantification of AKT levels in eutopic and ectopic EMSCs treated for 48 h with 100 nM quinagolide (Q), compared to untreated cells (CTL). B: Representative western blot analysis and quantification of P-AKT levels, normalized to AKT expression, in eutopic and ectopic EMSCs treated for 48 h with 100 nM quinagolide (Q), respect to untreated cells (CTL). C: Representative western blot analysis and quantification of P-AKT levels in HUVECs, ectopic […] basal), and in […] co-culture with HUVECs, treated or not for 24 h with 100 nM quinagolide (Q100 nM). Data are represented as mean±SD of at least two independent experiments, performed on different EMSC lines, and normalized to Vinculin and to untreated cells (CTL). One-way ANOVA was performed: *=p<0.05 and **=p<0.001 vs CTL. Cell pellets were lysed at 4° C. for 15 minutes in RIPA buffer supplemented with protease and phosphatase inhibitors cocktail and PMSF (Sigma-Aldrich). Proteins were quantified using Bradford solution following the manufacturer procedures (Bio-Rad Inc., Berkely, CA, USA) and aliquots of cell lysates containing 50 μg of proteins were run on 4-12% Mini-Protean TGX Stain-Free Gels (Bio-Rad) under reducing conditions and transferred onto PVDF membrane filters using the iBLOT2 system (Life Technologies). […]

[1] = long-term prolactinoma treatment (Schultz et al., 2000; Barlier et al., 2006); cited from earlier work
HUVECs = test: Annexin V apoptosis assay on HUVECs; assay type: cell-based, human; settings: after 24 hours of quinagolide treatment, 10^-5 and 10^-7 M
Experimental: as §1

eutopic E-MSCs = test: Matrigel transwell invasion assay, eutopic E-MSCs; assay type: cell-based, human; settings: 100 nM, 48 h, vs untreated
Experimental: FIG. 4: Quinagolide effect on EMSCs invasion. A and B: Representative micrographs (A) and quantification (B) of quinagolide effect (100 nM) on eutopic and ectopic (both ovarian and peritoneal) EMSCs invasion (original magnification: ×100). C: Concentration response effect of quinagolide treated ectopic EMSCs invasion. D and E: Quantification (D) and representative micrographs (E) (original magnification: ×100) of invasion assays performed on ectopic EMSCs (both ovarian and peritoneal), treated with 100 nM quinagolide (Q100 nM), 5 μM spiperone(S) or a combination of quinagolide and spiperone (S+Q100 nM). All invasion data are represented as mean±SD of at least three independent experiments, performed on different EMSC lines, and normalized to untreated cells (CTL). One-way ANova was performed: *=p<0.05 and **=p<0.001 vs CTL. Quinagolide powder (provided by Ferring Pharmaceuticals) was stored at 4° C. and resuspended in dimethylsulphoxide (DMSO) to a stock solution of 1 mM immediately before use. Spiperone powder (Sigma-Aldrich) was resuspended in water to a stock concentration of 1 mM and stored at −20° C. […] At least five pictures per transwell were acquired (original magnification: 100×), and the percentage of transwell area covered by invaded EMSCs was quantitatively measured by ImageJ software.

Sequence of dopamine D2 (P14416 1-414 isoform P14416-2): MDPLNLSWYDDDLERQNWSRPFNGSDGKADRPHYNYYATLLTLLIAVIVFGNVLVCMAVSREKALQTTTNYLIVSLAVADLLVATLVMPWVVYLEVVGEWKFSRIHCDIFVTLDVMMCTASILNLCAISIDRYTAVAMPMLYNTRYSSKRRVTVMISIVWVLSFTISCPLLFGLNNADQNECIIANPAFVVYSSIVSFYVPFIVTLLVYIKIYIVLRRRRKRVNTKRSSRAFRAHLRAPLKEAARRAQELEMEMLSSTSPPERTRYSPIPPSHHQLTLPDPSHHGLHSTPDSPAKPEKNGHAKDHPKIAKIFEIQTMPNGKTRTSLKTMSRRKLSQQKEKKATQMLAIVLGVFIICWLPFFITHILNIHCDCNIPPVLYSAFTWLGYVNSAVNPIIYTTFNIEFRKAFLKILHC

Which results are given for `CCCN1C[C@@H](NS(=O)(=O)N(CC)CC)C[C@@H]2Cc3c(O)cccc3C[C@H]21` [quinagolide, N,N-diethyl-N′-[(3S,4aS,10aR)-6-hydroxy-1-propyl-1,2,3,4,4a,5,10,10a-octahydrobenzo[g]quinolin-3-yl]sulfamide]?
levels of VEGF in the coculture model (VEGF): did not reduce; EC50 (dopamine D2): 0.058 nM; apoptosis of E-MSCs (Annexin V+) (ectopic EMSCs): did not increase apoptosis; AKT phosphorylation (AKT): reduced; safety and tolerability [1]: safe and well-tolerated; apoptosis of HUVEC cells (HUVECs): did not show alteration; invasion of eutopic E-MSC lines (eutopic E-MSCs): significantly reduced
